From article PMC12508063, “Chloroindazole based estrogen receptor β ligands with favorable pharmacokinetics promote functional remyelination and visual recovery” (Scientific Reports, 2025)
Several values for one entry are separate records, joined by “and”; a condition that tells them apart may be missing. Identical values can stand only once. Counter-ions that a name gives are not always drawn.

How the values were obtained:
[1] = system: co-cultures of primary cortical neurons and OPCs; assay: Axon myelination in co-cultures of primary cortical neurons and OPCs; type: cell-based, mouse; details: K102, K110 10 nM; Clemastine, Bazedoxifene 500 nM; 5 days
[2] = target: CYP3A4 (Homo sapiens, UniProt P08684); assay: in vitro
[3] = target: T1, ERβ (Homo sapiens, UniProt Q92731); assay: ER reporter gene assay in HEK 293 T cells (ER-luciferase reporter); type: cell-based; details: for Reporter gene assay raw data, ERb: ERb data block (head r19), 4 replicate columns; for ERb reporter gene assay raw data (response): four replicate columns per compound
T1 construct: expressed in transfected cells; host or cells: HEK 293 T cells

[4] = target: T2, ERα (Homo sapiens, UniProt P03372); assay: as above; type: cell-based; details: for Reporter gene assay raw data, ERa: 4 replicate columns
T2 construct: expressed in transfected cells; host or cells: HEK 293 T cells
T2 sequence (P03372 1-595): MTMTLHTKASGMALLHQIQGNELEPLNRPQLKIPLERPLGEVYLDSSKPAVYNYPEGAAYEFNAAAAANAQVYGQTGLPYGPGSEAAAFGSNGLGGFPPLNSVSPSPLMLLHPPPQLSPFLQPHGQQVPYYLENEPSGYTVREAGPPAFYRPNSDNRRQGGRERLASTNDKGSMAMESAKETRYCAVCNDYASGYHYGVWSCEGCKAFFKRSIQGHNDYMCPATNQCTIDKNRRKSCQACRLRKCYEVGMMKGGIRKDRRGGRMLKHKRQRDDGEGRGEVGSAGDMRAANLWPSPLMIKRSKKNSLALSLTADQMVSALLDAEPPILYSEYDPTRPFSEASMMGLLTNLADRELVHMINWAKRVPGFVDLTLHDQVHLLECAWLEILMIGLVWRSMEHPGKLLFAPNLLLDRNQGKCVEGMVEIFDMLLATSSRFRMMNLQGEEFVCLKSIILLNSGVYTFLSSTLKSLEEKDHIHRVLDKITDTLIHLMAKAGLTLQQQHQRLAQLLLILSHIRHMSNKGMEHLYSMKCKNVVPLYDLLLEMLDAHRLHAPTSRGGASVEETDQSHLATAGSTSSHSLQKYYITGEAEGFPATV

[5] = target: CYP2D6 (Homo sapiens, UniProt P10635); assay: CYP inhibition; details: human, probe Dextromethorphan
[6] = target: CYP2C9 (Homo sapiens, UniProt P11712); assay: CYP inhibition; details: human
[7] = Stability in human plasma; type: in vitro ADME
[8] = Plasma protein binding (mouse)
[9] = Plasma protein binding (human)

T1 sequence (Q92731 whole entry, species assumed): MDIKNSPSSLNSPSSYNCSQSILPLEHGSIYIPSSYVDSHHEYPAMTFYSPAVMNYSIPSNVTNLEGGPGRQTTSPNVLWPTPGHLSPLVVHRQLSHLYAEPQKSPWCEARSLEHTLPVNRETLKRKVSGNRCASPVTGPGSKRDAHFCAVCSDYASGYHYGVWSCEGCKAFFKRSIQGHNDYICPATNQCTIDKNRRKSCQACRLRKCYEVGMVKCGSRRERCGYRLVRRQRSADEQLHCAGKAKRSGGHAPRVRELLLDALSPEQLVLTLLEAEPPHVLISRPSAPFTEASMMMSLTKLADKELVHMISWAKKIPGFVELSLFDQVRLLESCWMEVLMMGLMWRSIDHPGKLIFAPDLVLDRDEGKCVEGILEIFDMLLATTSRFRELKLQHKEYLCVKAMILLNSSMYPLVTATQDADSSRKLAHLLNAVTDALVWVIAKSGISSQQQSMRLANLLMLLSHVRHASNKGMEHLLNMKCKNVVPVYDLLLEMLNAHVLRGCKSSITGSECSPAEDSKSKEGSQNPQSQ
CYP3A4, sequence (P08684 whole entry): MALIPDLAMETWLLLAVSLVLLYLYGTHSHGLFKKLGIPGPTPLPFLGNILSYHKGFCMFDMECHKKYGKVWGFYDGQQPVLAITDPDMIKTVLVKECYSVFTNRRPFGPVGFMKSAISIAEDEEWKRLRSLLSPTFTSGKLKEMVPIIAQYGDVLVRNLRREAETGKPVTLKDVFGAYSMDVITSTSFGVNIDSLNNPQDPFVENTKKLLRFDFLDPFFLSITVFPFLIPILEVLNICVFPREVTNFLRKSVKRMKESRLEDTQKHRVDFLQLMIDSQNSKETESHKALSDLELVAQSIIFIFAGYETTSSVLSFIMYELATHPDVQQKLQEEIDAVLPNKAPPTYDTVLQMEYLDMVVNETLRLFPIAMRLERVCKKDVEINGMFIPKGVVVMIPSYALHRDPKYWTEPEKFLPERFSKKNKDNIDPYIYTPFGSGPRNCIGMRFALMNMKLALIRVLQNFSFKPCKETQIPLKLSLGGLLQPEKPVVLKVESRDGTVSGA
CYP2D6, sequence (P10635 whole entry): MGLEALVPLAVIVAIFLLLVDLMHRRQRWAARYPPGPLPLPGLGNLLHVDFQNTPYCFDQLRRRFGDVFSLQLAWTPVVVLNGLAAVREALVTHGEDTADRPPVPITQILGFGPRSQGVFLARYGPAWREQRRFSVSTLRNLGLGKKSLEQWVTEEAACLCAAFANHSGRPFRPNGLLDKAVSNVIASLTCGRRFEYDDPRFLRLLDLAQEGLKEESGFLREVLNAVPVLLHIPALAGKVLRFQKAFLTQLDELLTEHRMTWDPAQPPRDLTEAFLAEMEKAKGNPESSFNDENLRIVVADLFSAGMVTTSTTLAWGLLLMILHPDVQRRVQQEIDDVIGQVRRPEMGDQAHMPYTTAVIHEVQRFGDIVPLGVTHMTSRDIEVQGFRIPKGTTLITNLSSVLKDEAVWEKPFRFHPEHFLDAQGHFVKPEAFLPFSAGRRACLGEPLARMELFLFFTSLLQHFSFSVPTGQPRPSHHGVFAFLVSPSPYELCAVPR
CYP2C9, sequence (P11712 whole entry): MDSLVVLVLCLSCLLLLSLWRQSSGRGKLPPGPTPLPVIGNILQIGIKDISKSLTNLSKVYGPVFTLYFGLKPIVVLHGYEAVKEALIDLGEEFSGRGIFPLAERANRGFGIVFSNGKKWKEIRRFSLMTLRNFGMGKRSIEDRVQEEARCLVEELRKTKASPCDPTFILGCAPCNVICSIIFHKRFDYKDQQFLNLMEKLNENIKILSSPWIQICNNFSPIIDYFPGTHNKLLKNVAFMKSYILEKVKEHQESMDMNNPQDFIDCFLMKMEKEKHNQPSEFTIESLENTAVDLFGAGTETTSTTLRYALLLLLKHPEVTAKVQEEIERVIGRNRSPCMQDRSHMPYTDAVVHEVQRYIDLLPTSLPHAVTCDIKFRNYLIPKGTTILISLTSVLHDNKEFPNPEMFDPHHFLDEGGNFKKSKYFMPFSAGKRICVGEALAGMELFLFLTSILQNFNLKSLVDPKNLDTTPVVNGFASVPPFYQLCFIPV

With `CN1CCC[C@@H]1CCO[C@](C)(c1ccccc1)c1ccc(Cl)cc1` [Clemastine, Clemastine fumarate] as the compound, how does the “OL processes wrapping axons” value [1] read?
Its value is “significant increase”.

For `CC(=O)N1CCN(c2ccc(OCC3COC(Cn4ccnc4)(c4ccc(Cl)cc4Cl)O3)cc2)CC1` (stereo not shown) [Ketoconazole], which inhibition at 10 µM ([2]; CYP Inhibition Percentage CYP3A4-M) is on record?
The inhibition at 10 µM was 95.5%.

What about the inhibition at 10 µM ([2]; CYP Inhibition Percentage CYP3A4-T) of the same compound?
Its inhibition at 10 µM is 92.5%.

For `CCCc1c(-c2ccc(O)cc2)nn(-c2ccc(O)cc2)c1-c1ccc(O)cc1` [PPT, propylpyrazoletriol], which “Reporter gene assay raw data, ERb” value ([3]; Log M -6) is on record?
The value was 19.5014 and 20.0849 and 23.8882 and 22.6897.

What about the “ERb reporter gene assay raw data (response)” value ([3]; Log M -6) of the same compound?
The value was 21.485 and 20.205 and 17.3019 and 20.855.

What about the “Reporter gene assay raw data, ERb” value ([3]; Log M -6.47756) of the same compound?
Its value is 16.4485 and 15.2513 and 19.8755 and 17.389.

And the “ERb reporter gene assay raw data (response)” value ([3]; Log M -6.47756)?
Its value is 18.9594 and 20.0074 and 15.2776 and 15.7954.

And the “Reporter gene assay raw data, ERb” value ([3]; Log M -6.95468)?
The value was 10.4714 and 10.5487 and 14.4972 and 14.256.

What about the “ERb reporter gene assay raw data (response)” value ([3]; Log M -6.95468) of the same compound?
The value was 18.4622 and 14.9797 and 13.6041 and 14.8139.

What about the “Reporter gene assay raw data, ERb” value ([3]; Log M -7.4318) of the same compound?
The value was 5.476 and 4.22 and 5.578 and 6.583.

And the “ERb reporter gene assay raw data (response)” value ([3]; Log M -7.4318)?
Its value is 10.9473 and 9.898 and 9.008 and 8.195.

What about the “Reporter gene assay raw data, ERb” value ([3]; Log M -7.91009) of the same compound?
The value was 1.07 and -0.6207 and 3.16 and 0.9592.

And the “ERb reporter gene assay raw data (response)” value ([3]; Log M -7.91009)?
The value was 6.169 and 4.563 and 6.678 and 4.2739.

What about the “Reporter gene assay raw data, ERb” value ([3]; Log M -8.3851) of the same compound?
Its value is 0.7593 and -1.643 and 0.4997 and -2.03.

And the “ERb reporter gene assay raw data (response)” value ([3]; Log M -8.3851)?
Its value is 3.945 and 3.96 and 6.88 and 1.445.

What about the “Reporter gene assay raw data, ERb” value ([3]; Log M -8.86328) of the same compound?
The value was -0.4322 and -1.466 and 2.716 and -1.501.

What about the “ERb reporter gene assay raw data (response)” value ([3]; Log M -8.86328) of the same compound?
The value was 5.736 and 3.2685 and 3.216 and 2.057.

What about the “Reporter gene assay raw data, ERb” value ([3]; Log M -9.34008) of the same compound?
Its value is -0.1098 and -1.507 and 1.45 and -0.6901.

What about the “ERb reporter gene assay raw data (response)” value ([3]; Log M -9.34008) of the same compound?
Its value is 3.967 and 2.823 and 2.379 and 1.871.

And the “Reporter gene assay raw data, ERb” value ([3]; Log M -9.81816)?
Its value is -0.5451 and -0.7163 and 0.1509 and -1.511.

And the “ERb reporter gene assay raw data (response)” value ([3]; Log M -9.81816)?
Its value is 1.577 and 2.9115 and 0.9432 and -0.07211.

And the “Reporter gene assay raw data, ERb” value ([3]; Log M -10.2941)?
The value was -1.084 and -0.1568 and -0.6795 and -0.3425.

And the “ERb reporter gene assay raw data (response)” value ([3]; Log M -10.2941)?
The value was 1.736 and 0.3306 and 0.3765 and -0.321.

And the “Reporter gene assay raw data, ERb” value ([3]; Log M -10.7721)?
Its value is -1.226 and -1.1541 and -1.046 and -1.761.

And the “ERb reporter gene assay raw data (response)” value ([3]; Log M -10.7721)?
Its value is -0.8597 and 0.03179 and -1.5452 and -1.38.

What about the “Reporter gene assay raw data, ERb” value ([3]; Log M -11.248) of the same compound?
The value was -0.3317 and 0.5222 and -1.104 and -1.502.

What about the “ERb reporter gene assay raw data (response)” value ([3]; Log M -11.248) of the same compound?
The value was -0.3358 and 0.6884 and 0.7035 and 0.7906.

And the “ERb reporter gene assay raw data (response)” value ([3]; Log M -13)?
Its value is 0.5566 and -0.5566 and 0.8119 and -0.8119.

And the “Reporter gene assay raw data, ERa” value ([4]; Log M -6, first ERa data block (head r2))?
Its value is 86.0824 and 79.2296 and 78.3082 and 79.1573.

What about the “Reporter gene assay raw data, ERa” value ([4]; Log M -6, second ERa data block (head r34)) of the same compound?
Its value is 87.9608 and 88.617 and 93.8527 and 87.2476.

What about the “Reporter gene assay raw data, ERa” value ([4]; Log M -6.47756, first ERa data block (head r2)) of the same compound?
The value was 90.8624 and 88.5783 and 89.3316 and 78.0129.

What about the “Reporter gene assay raw data, ERa” value ([4]; Log M -6.47756, second ERa data block (head r34)) of the same compound?
Its value is 88.252 and 85.7322 and 87.7049 and 87.7177.

And the “Reporter gene assay raw data, ERa” value ([4]; Log M -6.95468, first ERa data block (head r2))?
The value was 87.1769 and 84.3715 and 90.3303 and 89.4496.

And the “Reporter gene assay raw data, ERa” value ([4]; Log M -6.95468, second ERa data block (head r34))?
The value was 95.811 and 91.5253 and 94.4371 and 90.1172.

What about the “Reporter gene assay raw data, ERa” value ([4]; Log M -7.4318, first ERa data block (head r2)) of the same compound?
The value was 90.4114 and 87.987 and 94.8392 and 90.7082.

What about the “Reporter gene assay raw data, ERa” value ([4]; Log M -7.4318, second ERa data block (head r34)) of the same compound?
The value was 106.107 and 97.2934 and 83.08 and 92.8748.

And the “Reporter gene assay raw data, ERa” value ([4]; Log M -7.91009, first ERa data block (head r2))?
The value was 85.6554 and 95.12 and 98.5558 and 94.3071.

What about the “Reporter gene assay raw data, ERa” value ([4]; Log M -7.91009, second ERa data block (head r34)) of the same compound?
Its value is 95.0594 and 87.5842 and 88.9618 and 84.8971.

And the “Reporter gene assay raw data, ERa” value ([4]; Log M -8.3851, first ERa data block (head r2))?
The value was 92.5458 and 88.4315 and 85.0988 and 85.7612.

And the “Reporter gene assay raw data, ERa” value ([4]; Log M -8.3851, second ERa data block (head r34))?
Its value is 94.3547 and 89.3596 and 80.8197 and 80.3933.

What about the “Reporter gene assay raw data, ERa” value ([4]; Log M -8.86328, first ERa data block (head r2)) of the same compound?
Its value is 84.8361 and 86.8057 and 82.3746 and 77.2465.

What about the “Reporter gene assay raw data, ERa” value ([4]; Log M -8.86328, second ERa data block (head r34)) of the same compound?
Its value is 85.9296 and 87.1693 and 76.3853 and 76.3319.

And the “Reporter gene assay raw data, ERa” value ([4]; Log M -9.34008, first ERa data block (head r2))?
The value was 74.7989 and 75.6545 and 77.292 and 82.2909.

What about the “Reporter gene assay raw data, ERa” value ([4]; Log M -9.34008, second ERa data block (head r34)) of the same compound?
Its value is 84.5588 and 86.4988 and 76.9768 and 80.3165.

What about the “Reporter gene assay raw data, ERa” value ([4]; Log M -9.81816, first ERa data block (head r2)) of the same compound?
Its value is 61.8395 and 65.1501 and 66.4827 and 65.905.

What about the “Reporter gene assay raw data, ERa” value ([4]; Log M -9.81816, second ERa data block (head r34)) of the same compound?
The value was 75.5533 and 73.0444 and 68.3421 and 69.495.

And the “Reporter gene assay raw data, ERa” value ([4]; Log M -10.2941, first ERa data block (head r2))?
Its value is 40.0072 and 40.9439 and 38.9576 and 38.1761.

What about the “Reporter gene assay raw data, ERa” value ([4]; Log M -10.2941, second ERa data block (head r34)) of the same compound?
The value was 46.869 and 47.8915 and 37.7547 and 39.1778.

And the “Reporter gene assay raw data, ERa” value ([4]; Log M -10.7721, first ERa data block (head r2))?
Its value is 19.4359 and 14.8698 and 17.3697 and 15.2983.

What about the “Reporter gene assay raw data, ERa” value ([4]; Log M -10.7721, second ERa data block (head r34)) of the same compound?
Its value is 13.881 and 18.514 and 18.2618 and 16.0774.

And the “Reporter gene assay raw data, ERa” value ([4]; Log M -11.248, first ERa data block (head r2))?
The value was 4.705 and 3.999 and 3.885 and 4.444.

What about the “Reporter gene assay raw data, ERa” value ([4]; Log M -11.248, second ERa data block (head r34)) of the same compound?
The value was 6.356 and 4.574 and 4.487 and 4.951.

What about the “ERa reporter gene assay raw data (response)” value ([4]; Log M -13, four replicate columns per compound) of the same compound?
Its value is 0.8253 and -0.8253 and 1.478 and -1.478.

For `C=C[C@H]1C[N@@]2CC[C@H]1C[C@@H]2[C@@H](O)c1ccnc2ccc(OC)cc12` [Quinidine], which inhibition at 10 µM [5] is on record?
The inhibition at 10 µM was 92.7%.

For `Nc1ccc(S(=O)(=O)Nc2ccnn2-c2ccccc2)cc1` [Sulfaphenazole], which inhibition at 10 µM [6] is on record?
Its inhibition at 10 µM is 93.9%.

Which “% Remaining at 6 hr in Human Plasma” value [7] does the source give for `CC(=O)CC(c1ccccc1)c1c(O)c2ccccc2oc1=O` (stereo not shown) [Wafarine] here?
The value was 111.24%.

And the “Protein Binding (% Bound) Mouse” value [8]?
Its value is 93.11%.

And the “Protein Binding (% Bound) Human” value [9]?
The value was 98.68%.
